Our source for the IC50 and inhibition values is patent US4202891A, “15-Oxygenated sterol compounds and the use of such compounds to inhibit the biosynthesis of sterols” (priority 1977, dated 1980).

Where two headings read alike, the source gives them in different places.

For this experiment, the system named is sterol biosynthesis in L cells. Kind of experiment: Inhibition of sterol synthesis from [1-14C]acetate in L cell cultures. To be noted: Mus musculus; for IC50: read-out: Concentrations Required for 50% Inhibition of Sterol Synthesis; for inhibition at 0.1 µM: read-out: inhibition of sterol synthesis. It is filed as cell-based. Here is the method:
The effect of various 15-oxygenated sterols on sterol biosynthesis in L cells and in primary cultures of mouse liver cells was tested essentially under conditions described in detail previously [A. A. Kandutsch and H. W. Chen, J. Biol. Chem., Vol. 248, pp. 8408-8417 (1973) and A. A. Kandutsch and H. W. Chen, J. Biol. Chem., Vol. 249, pp. 6057-6061 (1974`)].
The primary liver cell cultures were prepared from 16-day-old (C57BL/6J fetuses and grown in chemically defined medium (serum-free) as described in the above cited publications. The L cells, a subline of NCTC clone 929 mouse fibroblasts, were grown in chemically defined medium (serum-free) as described in the publications. These L cells are transformed fibroblasts which are regarded as malignant since they will grow as tumors if injected into the mouse strain from which they were initially obtained.
The preparation of steroid-containing media, procedures for assays of the conversion of [1-^14 C]acetate into digitonin-precipitable sterols, fatty acids, and CO2 and methods for the measurement of DNA, protein, and HMG-CoA reductase were as described in the published articles. L cell cultures were preincubated with the 15-oxygenated sterols and their derivatives for 4 hours, then [1-^14 C]acetate was added at a concentration of 4 μmoles per ml (4 μCi per ml); or the L cell cultures were incubated for 5 hours with the 15-oxygenated sterols before they were harvested for determination of microsomal HMG-CoA reductase activity.
The test compounds were tested over a range of at least 4 concentrations and the assay was repeated until the concentration of test compound required to produce 50% inhibition was located on the steeply declining portion of an activity vs. concentration plot. To diminish any possible effects of generalized differences in cellular metabolism, the rates of sterol synthesis from [1-^14 C]acetate were calculated as the ratio of [^14 C]sterols to [^14 C]fatty acids as described in the two cited articles by Kandutsch and Chen.

As for `CCC[C@]12C3=CC[C@H]4C[C@@H](O)CC[C@]4(C)[C@H]3CC[C@]1(C)[C@@H]([C@H](C)CCCC(C)C)C[C@@H]2O` [14α-n-Propyl-5α-cholest-7-en-3β,15α-diol, 14α-n-propyl-5α-cholest-7-en-3β,15α-diol], the IC50 was found to be 1.1 µM.
Still for that read-out and setting: for `CO[C@H]1CC[C@@]2(C)[C@@H](CC=C3[C@@H]2CC[C@]2(C)[C@@H]([C@H](C)CCCC(C)C)CC(=O)[C@@]32C)C1` [3β-methoxy-14α-methyl-5α-cholest-7-en-15-one] the value was 20 µM; for `CCCCCCCCCCCCCCCC(=O)O[C@H]1CC[C@@]2(C)[C@@H](CC=C3[C@@H]2CC[C@]2(C)[C@@H]([C@H](C)CCCC(C)C)C[C@@H](O)[C@@]32CC)C1` [3β-hexadecanoyloxy-14α-ethyl-5α-cholest-7-en-15β-ol], greater than 15.1 µM; for `CCCC[C@]12C3=CC[C@H]4C[C@@H](O)CC[C@]4(C)[C@H]3CC[C@]1(C)[C@@H]([C@H](C)CCCC(C)C)C[C@@H]2O` [14α-n-Butyl-5α-cholest-7-en-3β,15α-diol, 14α-n-butyl-5α-cholest-7-en-3β,15α-diol], 5 µM.
Broadly, the inhibition is how much of the control response was suppressed. With `CC[C@@]12C(=O)C[C@H]([C@H](C)CCCC(C)C)[C@@]1(C)CC[C@H]1C2=CC[C@H]2C[C@H](O)CC[C@@]21C` [14α-Ethyl-5α-cholest-7-en-3α-ol-15-one, 14α-ethyl-5α-cholest-7-en-3α-ol-15-one], the IC50 was less than 0.1 µM and the inhibition at 0.1 µM was roughly 100%.
As to `CCC[C@@]12C(=O)C[C@H]([C@H](C)CCCC(C)C)[C@@]1(C)CC[C@H]1C2=CC[C@H]2C[C@@H](O)CC[C@@]21C` [14α-n-propyl-5α-cholest-7-en-3β-ol-15-one], the IC50 worked out at 3.4 µM.
On the same count and under the same terms, for `CCCC[C@@]12C(=O)C[C@H]([C@H](C)CCCC(C)C)[C@@]1(C)CC[C@H]1C2=CC[C@H]2C[C@@H](O)CC[C@@]21C` [14α-n-Butyl-5α-cholest-7-en-3β-ol-15-one, 14α-n-butyl-5α-cholest-7-en-3β-ol-15-one] the value was 8.3 µM.
As to `CC[C@]12C3=CC[C@H]4CC(=O)CC[C@]4(C)[C@H]3CC[C@]1(C)[C@@H]([C@H](C)CCCC(C)C)C[C@@H]2O` [14α-Ethyl-5α-cholest-7-en-15α-ol-3-one, 14α-ethyl-5α-cholest-7-en-15α-ol-3-one], the IC50 is less than 0.1 µM and the inhibition at 0.1 µM is roughly 100%.
As to `CCCCCCCCCCCCCCCC(=O)O[C@H]1CC[C@@]2(C)[C@@H](CC=C3[C@@H]2CC[C@]2(C)[C@@H]([C@H](C)CCCC(C)C)C[C@H](O)[C@@]32CC)C1` [3β-hexadecanoyloxy-14α-ethyl-5α-cholest-7-en-15α-ol], the IC50 came out at 7 µM.
Same read-out and setting: then `CCCC[C@]12C3=CC[C@H]4C[C@@H](O)CC[C@]4(C)[C@H]3CC[C@]1(C)[C@@H]([C@H](C)CCCC(C)C)C[C@H]2O` [14α-n-Butyl-5α-cholest-7-en-3β,15β-diol, 14α-n-butyl-5α-cholest-7-en-3β,15β-diol], with 4.4 µM; and `CCC[C@]12C3=CC[C@H]4C[C@@H](O)CC[C@]4(C)[C@H]3CC[C@]1(C)[C@@H]([C@H](C)CCCC(C)C)C[C@H]2O` [14α-n-Propyl-5α-cholest-7-en-3β,15β-diol, 14α-n-propyl-5α-cholest-7-en-3β,15β-diol], with 4.1 µM.
`CC(C)CCC[C@@H](C)[C@H]1CC(=O)C2=C3CC[C@H]4C[C@H](O)CC[C@]4(C)[C@H]3CC[C@@]21C` [5α-Cholest-8(14)-en-3α-ol-15-one, 5α-cholest-8(14)-en-3α-ol-15-one]: the IC50 (L cell cultures) was determined as 0.5 µM.
In the case of `CC(C)CCC[C@@H](C)[C@H]1C[C@H](O)[C@@H]2C3=CC[C@H]4CC(=O)CC[C@]4(C)[C@H]3CC[C@]12C` [5α,14β-Cholest-7-en-15α-ol-3-one, 5α,14β-cholest-7-en-15α-ol-3-one], the IC50 is 2 µM.
Still for that read-out and setting: for `CC(C)CCC[C@@H](C)[C@H]1C[C@@H](O)[C@@H]2C3=CC[C@H]4CC(=O)CC[C@]4(C)[C@H]3CC[C@]12C` [5α,14β-Cholest-7-en-15β-ol-3-one, 5α,14β-cholest-7-en-15β-ol-3-one] the value was 0.25 µM.
